# Reference: article PMC12054364, “Structure of the Fab fragment of a humanized 5E5 antibody to a cancer-specific Tn-MUC1 epitope” (Acta Crystallographica Section D: Structural Biology, 2025)
# Ends that are not written are not given here. * marks the point of attachment. αGalNAc = CC(=O)N[C@@H]1[C@@H](O)[C@@H](O)[C@@H](CO)O[C@@H]1*
# Key:
# 1104 Fab = test: SPR negative control: glycopeptides over immobilized irrelevant 1104 Fab; format: binding; conditions: amine-coupled Fab 1104 (∼10 000 RU), peptide 6.25-100 µM, HBS-EP pH 7.4, 25°C
# Description: (§1) The binding kinetics of the h-5E5 Fab to doubly glycosylated Tn-MUC1 peptides were studied by surface plasmon resonance (SPR) using a Biacore T200 instrument (GE Healthcare). All experiments were performed at 25°C with HBS-EP (10 mM HEPES, 150 mM NaCl, 3 mM EDTA, 0.005% Tween 20 pH 7.4) as the running buffer. The purified h-5E5 Fab and an irrelevant 1104 Fab were immobilized [∼10 000 resonance units (RUs) each] on a Series S Sensor Chip CM7 (Cytiva) using an amine-coupling kit (Cytiva) in 10 mM acetate buffer pH 4.0 (Cytiva). Serial dilutions of doubly glycosylated Tn-MUC1 peptides in HBS-EP buffer were injected at a flow rate of 20 µl min^−1 over flow cells containing immobilized h-5E5 Fab and the 1104 Fab (as a negative control). The reference flow cell was blocked with ethanolamine. The association time was set to 30 s and the dissociation time to 60 s. After each run, the sensor chip was regenerated with HBS-EP buffer. The concentrations of the analytes injected were 6.25, 12.5, 25, 50 and 100 µM. […] Reference flow cell subtracted sensorgrams were analyzed with BIAevaluation Software v.3.2 (Cytiva) and affinities were determined by steady-state analysis from three experimental replicates. PAPGS*T*AP binding to amine-coupled 5E5 mAb (∼25 000 RUs) was determined under the same conditions described for the Fab.
# h-5E5 mAb = test: SPR binding of PAPGS*T*AP to immobilized h-5E5 mAb; parameters: species or system humanized; conditions: amine-coupled mAb (∼25 000 RU), same conditions as for the Fab, steady-state
# Description: as §1
# h-5E5 Fab = test: SPR binding of doubly glycosylated Tn-MUC1 peptides to immobilized h-5E5 Fab; parameters: species or system humanized
# Description: The binding kinetics of the h-5E5 Fab to doubly glycosylated Tn-MUC1 peptides were studied by surface plasmon resonance (SPR) using a Biacore T200 instrument (GE Healthcare). All experiments were performed at 25°C with HBS-EP (10 mM HEPES, 150 mM NaCl, 3 mM EDTA, 0.005% Tween 20 pH 7.4) as the running buffer. The purified h-5E5 Fab and an irrelevant 1104 Fab were immobilized [∼10 000 resonance units (RUs) each] on a Series S Sensor Chip CM7 (Cytiva) using an amine-coupling kit (Cytiva) in 10 mM acetate buffer pH 4.0 (Cytiva). Serial dilutions of doubly glycosylated Tn-MUC1 peptides in HBS-EP buffer were injected at a flow rate of 20 µl min^−1 over flow cells containing immobilized h-5E5 Fab and the 1104 Fab (as a negative control). The reference flow cell was blocked with ethanolamine. The association time was set to 30 s and the dissociation time to 60 s. After each run, the sensor chip was regenerated with HBS-EP buffer. The concentrations of the analytes injected were 6.25, 12.5, 25, 50 and 100 µM. The analytes were two doubly glycosylated Tn-MUC1 peptides, PAPGS*T*AP and APGS*T*AP, where * represents GalNAc. Reference flow cell subtracted sensorgrams were analyzed with BIAevaluation Software v.3.2 (Cytiva) and affinities were determined by steady-state analysis from three experimental replicates. PAPGS*T*AP binding to amine-coupled 5E5 mAb (∼25 000 RUs) was determined under the same conditions described for the Fab.
# [1] = molecular target: Fab fragment of the humanized 5E5 antibody (h-5E5 Fab) (humanized from mouse | human) (UniProt P01834); test: SPR; Biacore T200; h-5E5 Fab amine-coupled (~10 000 RU) on a CM7 chip; glycopeptides flowed at 6.25-100 µM, 20 µl/min; 25°C; HBS-EP (10 mM HEPES, 150 mM NaCl, 3 mM EDTA, 0.005% Tween 20 pH 7.4); steady-state analysis, three replicates
# [2] = molecular target: humanized 5E5 monoclonal antibody (h-5E5 mAb) (humanized from mouse | human) (UniProt P01834); test: SPR; 5E5 mAb amine-coupled (~25 000 RU); PAPGS*T*AP flowed; same conditions as for the Fab (25°C, HBS-EP); steady-state analysis
# [3] = immobilized h-5E5 Fab, HBS-EP pH 7.4, 25°C
Kd (h-5E5 mAb),"Kd (h-5E5 Fab; Biacore T200, 25°C, HBS-EP (10 mM HEPES, 150 mM NaCl, 3 mM EDTA, 0.005% Tween 20 pH 7.4), Fab amine-coupled ∼10 000 RU on CM7 chip, peptide 6.25-100 µM, 20 µl/min, association 30 s, dissociation 60 s, steady-state analysis, three experimental replicates)",observed Rmax (h-5E5 Fab; [3]),observed Rmax as % of the theoretical Rmax (h-5E5 Fab; [3]),Kd [1],Kd [2],Molecule,binding to control surface (1104 Fab)
43.9 µM,40.7 ± 0.1 µM,165 RU,70%,,,"PAPGS*T*AP [doubly glycosylated Tn-MUC1 peptide, where * represents GalNAc]",Neither glycopeptide bound to the control surface
,,,,60.9 µM,,APGS(αGalNAc)T(αGalNAc)AP [doubly glycosylated Tn-MUC1 peptide APGS*T*AP],
,,,,40.7 µM,43.9 µM,PAPGS(αGalNAc)T(αGalNAc)AP [doubly glycosylated Tn-MUC1 peptide PAPGS*T*AP],
